# Molecular target: human RAF1 (Homo sapiens, UniProt P04049)
# Assay: Protein kinase assay (33P-ATP filter binding), human RAF1, 10-dose IC50
# Type: biochemical
# Conditions: MEK1 (K97R) substrate 3 micromolar, ATP 10 micromolar, read-out: RAF-1 IC50
# Method: In brief, for each reaction, kinase and substrate were mixed in a buffer containing 20 mM HEPES (pH 7.5), 10 mM MgCl2, 1 mM EGTA, 0.02% Brij35, 0.02 mg/mL BSA, 0.1 mM Na3VO4, 2 mM DTT, and […]. All compounds were solubilized in DMSO. Compounds were then added to each reaction mixture via acoustic dispense using an ECHO 550 nanoliter dispenser. For human RAF1 testing, human MEK1 (K97R) was used as a substrate at a concentration of 3 micromolar, with a final ATP concentration of 10 micromolar. […] Reactions were carried out at room temperature for 2 hr and spotted onto P81 ion exchange cellulose chromatography paper (Reaction Biology). […] The percent remaining kinase activity relative to a vehicle-containing (DMSO) kinase reaction was calculated for each kinase/inhibitor pair. IC50 values were calculated using Prism 5 (GraphPad).
# Chain of human RAF1 (P04049 whole entry): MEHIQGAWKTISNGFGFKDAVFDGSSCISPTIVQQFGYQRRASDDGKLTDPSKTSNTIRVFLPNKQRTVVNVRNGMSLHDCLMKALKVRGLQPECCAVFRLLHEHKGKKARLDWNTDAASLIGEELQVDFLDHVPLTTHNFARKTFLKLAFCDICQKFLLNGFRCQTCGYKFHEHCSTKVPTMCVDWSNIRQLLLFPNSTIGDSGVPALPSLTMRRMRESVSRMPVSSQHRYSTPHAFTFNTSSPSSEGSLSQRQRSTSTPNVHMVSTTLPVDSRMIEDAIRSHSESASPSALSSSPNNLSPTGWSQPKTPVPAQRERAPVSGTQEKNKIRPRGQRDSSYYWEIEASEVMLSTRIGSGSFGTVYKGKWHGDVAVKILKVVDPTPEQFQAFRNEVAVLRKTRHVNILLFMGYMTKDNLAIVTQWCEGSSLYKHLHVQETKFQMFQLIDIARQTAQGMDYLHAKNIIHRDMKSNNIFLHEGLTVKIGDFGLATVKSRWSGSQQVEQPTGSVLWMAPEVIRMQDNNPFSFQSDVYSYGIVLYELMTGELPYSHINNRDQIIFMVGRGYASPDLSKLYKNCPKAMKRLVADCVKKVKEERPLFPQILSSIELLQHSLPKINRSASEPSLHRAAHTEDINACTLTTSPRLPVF
row,IC50 [nM],Compound
1,< 10,"Cc1ccc(NC(=O)N2CC[C@H](OC(F)(F)F)C2)cc1-c1cc(OCC(C)O)nc(N2CCOCC2)c1 (stereo in doubt) [Example 152, (3S)-N-(3-[2-[(2R)-2-hydroxypropoxy]-6-(morpholin-4-yl)pyridin-4-yl]-4-methylphenyl)-3-(trifluoromethoxy)pyrrolidine-1-carboxamide]"
2,< 10,"Cc1ccc(NC(=O)N2CC[C@H](OC(F)(F)F)C2)cc1-c1cc(OC(C)CO)nc(N2CCOCC2)c1 (stereo in doubt) [Example 153, (3S)-N-[3-(2-[[(2R)-1-hydroxypropan-2-yl]oxy]-6-(morpholin-4-yl)pyridin-4-yl)-4-methylphenyl]-3-(trifluoromethoxy)pyrrolidine-1-carboxamide]"
3,< 10,Cc1cc(F)c(NC(=O)N2CC[C@@H](C(F)(F)F)C2)cc1-c1cnc(OCCO)c(N2CCOCC2)c1 [Example 12]
4,< 10,"Cc1cc(F)c(NC(=O)N2CC[C@H](C(F)(F)F)C2)cc1-c1cnc(OCCO)c(N2CCOCC2)c1 [Example 13, (3S)-N-[2-fluoro-5-[6-(2-hydroxyethoxy)-5-(morpholin-4-yl)pyridin-3-yl]-4-methylphenyl]-3-(trifluoromethyl)pyrrolidine-1-carboxamide]"
5,< 10,"Cc1cc(F)c(NC(=O)N2CCC3(CC3)C2)cc1-c1cc(OCCO)nc(N2CCOCC2)c1 [Example 18, N-[2-fluoro-5-[2-(2-hydroxyethoxy)-6-(morpholin-4-yl)pyridin-4-yl]-4-methylphenyl]-5-azaspiro[2.4]heptane-5-carboxamide]"
6,< 10,"Cc1cc(F)c(NC(=O)N2CCC(C)(C)C2)cc1-c1cc(OCCO)nc(N2CCOCC2)c1 [Example 19, N-[2-fluoro-5-[2-(2-hydroxyethoxy)-6-(morpholin-4-yl)pyridin-4-yl]-4-methylphenyl]-3,3-dimethylpyrrolidine-1-carboxamide]"
7,10 to 100,"Cc1cc(F)c(NC(=O)N2CCC(F)(F)CC2)cc1-c1cc(OCCO)nc(N2CCOCC2)c1 [Example 20, 4,4-difluoro-N-[2-fluoro-5-[2-(2-hydroxyethoxy)-6-(morpholin-4-yl)pyridin-4-yl]-4-methylphenyl]piperidine-1-carboxamide]"
8,10 to 100,"Cc1cc(F)c(NC(=O)N2CC(C(F)F)C2)cc1-c1cc(OCCO)nc(N2CCOCC2)c1 [Example 21, 3-(difluoromethyl)-N-[2-fluoro-5-[2-(2-hydroxyethoxy)-6-(morpholin-4-yl)pyridin-4-yl]-4-methylphenyl]azetidine-1-carboxamide]"
9,< 10,"Cc1cc(F)c(NC(=O)N2CC(F)(F)C(F)(F)C2)cc1-c1cc(OCCO)nc(N2CCOCC2)c1 [Example 22, 3,3,4,4-tetrafluoro-N-[2-fluoro-5-[2-(2-hydroxyethoxy)-6-(morpholin-4-yl)pyridin-4-yl]-4-methylphenyl]pyrrolidine-1-carboxamide]"
10,10 to 100,"Cc1cc(F)c(NC(=O)N2CCCC(F)(F)C2)cc1-c1cc(OCCO)nc(N2CCOCC2)c1 [Example 24, 3,3-difluroo-N-(2-fluoro-5-(2-(2-hydroxyethoxy)-6-morpholinopyridin-4-yl)-4-methylphenyl)piperidine-1-carboxamide]"
11,10 to 100,"Cc1cc(F)c(NC(=O)N2CCCC(O)(C(F)(F)F)C2)cc1-c1cc(OCCO)nc(N2CCOCC2)c1 (centres unmarked) [Example 25, N-(2-fluoro-5-(2-(2-hydroxyethoxy)-6-morpholinopyridin-4-yl)-4-methylphenyl)-3-hydroxy-3-(trifluoromethyl)piperidine-1-carboxamide]"
12,< 10,"Cc1cc(F)c(NC(=O)N2CCC3(CCC3)C2)cc1-c1cc(OCCO)nc(N2CCOCC2)c1 [Example 26, N-[2-fluoro-5-[2-(2-hydroxyethoxy)-6-(morpholin-4-yl)pyridin-4-yl]-4-methylphenyl]-6-azaspiro[3.4]octane-6-carboxamide]"
13,10 to 100,"Cc1cc(F)c(NC(=O)N2CCCC3(COC3)C2)cc1-c1cc(OCCO)nc(N2CCOCC2)c1 [Example 27, N-[2-fluoro-5-[2-(2-hydroxyethoxy)-6-(morpholin-4-yl)pyridin-4-yl]-4-methylphenyl]-2-oxa-6-azaspiro[3.5]nonane-6-carboxamide]"
14,10 to 100,"Cc1cc(F)c(NC(=O)N2CC3C(C2)C3(F)F)cc1-c1cc(OCCO)nc(N2CCOCC2)c1 (centres unmarked) [Example 28, 6,6-difluoro-N-[2-fluoro-5-[2-(2-hydroxyethoxy)-6-(morpholin-4-yl)pyridin-4-yl]-4-mehtylphenyl]-3-azabicyclo[3.1.0]hexane-3-carboxamide]"
15,< 10,"Cc1cc(F)c(NC(=O)NCC(F)(F)C(F)(F)F)cc1-c1cc(OCCO)nc(N2CCOCC2)c1 [Example 35, 1-[2-fluoro-5-[2-(2-hydroxyethoxy)-6-(morpholin-4-yl)pyridin-4-yl]-4-methylphenyl]-3-(2,2,3,3,3-pentafluoropropyl)urea]"
16,< 10,"Cc1cc(F)c(NC(=O)N2CC[C@H](CC(F)(F)F)C2)cc1-c1cc(OCCO)nc(N2CCOCC2)c1 [Example 36, (3R)-N-[2-fluoro-5-[2-(2-hydroxyethoxy)-6-(morpholin-4-yl)pyridin-4-yl]-4-methylphenyl]-3-(2,2,2-trifluoroethyl)pyrrolidine-1-carboxamide]"
17,< 10,"Cc1cc(F)c(NC(=O)N2CCCC3(CCC3)C2)cc1-c1cc(OCCO)nc(N2CCOCC2)c1 [Example 38, N-[2-fluoro-5-[2-(2-hydroxyethoxy)-6-(morpholin-4-yl)pyridin-4-yl]-4-methylphenyl]-6-azaspiro[3.5]nonane-6-carboxamide]"
18,< 10,"Cc1cc(F)c(NC(=O)N2C[C@@H](N)C[C@@H](C(F)(F)F)C2)cc1-c1cc(OCCO)nc(N2CCOCC2)c1 [Example 40, (3S,5R)-3-amino-N-[2-fluoro-5-[2-(2-hydroxyethoxy)-6-(morpholin-4-yl)pyridin-4-yl]-4-methylphenyl]-5-(trifluoromethyl)piperidine-1-carboxamide]"
19,10 to 100,"Cc1cc(F)c(NC(=O)N2CCC3(COC3)C2)cc1-c1cc(OCCO)nc(N2CCOCC2)c1 [Example 41, N-[2-fluoro-5-[2-(2-hydroxyethoxy)-6-(morpholin-4-yl)pyridin-4-yl]-4-methylphenyl]-2-oxa-6-azaspiro[3.4]octane-6-carboxamide]"
20,< 10,"COC1(C(F)(F)F)CCCN(C(=O)Nc2cc(-c3cc(OCCO)nc(N4CCOCC4)c3)c(C)cc2F)C1 (centres unmarked) [Example 42, N-[2-fluoro-5-[2-(2-hydroxyethoxy)-6-(morpholin-4-yl)pyridin-4-yl]-4-methylphenyl]-3-methoxy-3-(trifluoromethyl)piperidine-1-carboxamide]"
21,< 10,"Cc1cc(F)c(NC(=O)NC2CC2C(F)(F)F)cc1-c1cc(OCCO)nc(N2CCOCC2)c1 (centres unmarked) [Example 43, 1-[2-fluoro-5-[2-(2-hydroxyethoxy)-6-(morpholin-4-yl)pyridin-4-yl]-4-methylphenyl]-3-[2-(trifluoromethyl)cyclopropyl]urea]"
22,< 10,"Cc1cc(F)c(NC(=O)N2C[C@@H](O)C[C@@H](C(F)(F)F)C2)cc1-c1cc(OCCO)nc(N2CCOCC2)c1 [Example 44, (3S,5R)-N-[2-fluoro-5-[2-(2-hydroxyethoxy)-6-(morpholin-4-yl)pyridin-4-yl]-4-methylphenyl]-3-hydroxy-5-(trifluoromethyl) piperidine-1-carboxamide]"
23,< 10,"Cc1cc(F)c(NC(=O)N2CCC(CF)(C(F)(F)F)C2)cc1-c1cc(OCCO)nc(N2CCOCC2)c1 (centres unmarked) [Example 45, N-[2-fluoro-5-[2-(2-hydroxyethoxy)-6-(morpholin-4-yl)pyridin-4-yl]-4-methylphenyl]-3-(fluoromethyl)-3-(trifluoromethyl)pyrrolidine-1-carboxamide]"
24,10 to 100,"Cc1cc(F)c(NC(=O)N2CCCCC(F)(F)C2)cc1-c1cc(OCCO)nc(N2CCOCC2)c1 [Example 46, 3,3-difluoro-N-[2-fluoro-5-[2-(2-hydroxyethoxy)-6-(morpholin-4-yl)pyridin-4-yl]-4-methylphenyl]azepane-1-carboxamide]"
25,< 10,"Cc1cc(F)c(NC(=O)NCC2(C(F)(F)F)CCC2)cc1-c1cc(OCCO)nc(N2CCOCC2)c1 [Example 49, 1-[2-fluoro-5-[2-(2-hydroxyethoxy)-6-(morpholin-4-yl)pyridin-4-yl]-4-methylphenyl]-3-[[1-(trifluoromethyl)cyclobutyl]methyl]urea]"
26,< 10,"Cc1cc(F)c(NC(=O)N2CCCC(N)(C(F)(F)F)C2)cc1-c1cc(OCCO)nc(N2CCOCC2)c1 (centres unmarked) [Example 54, 3-amino-N-[2-fluoro-5-[2-(2-hydroxyethoxy)-6-(morpholin-4-yl)pyridin-4-yl]-4-methylphenyl]-3-(trifluoromethyl)piperiidne-1-carboxamide]"
27,< 10,"Cc1cc(F)c(NC(=O)N2C[C@H](N)C[C@H](C(F)(F)F)C2)cc1-c1cc(OCCO)nc(N2CCOCC2)c1 [Example 55, (3R,5S)-3-amino-N-[2-fluoro-5-[2-(2-hydroxyethoxy)-6-(morpholin-4-yl)pyridin-4-yl]-4-methylphenyl]-5-(trifluoromethyl)piperidine-1-carboxamide]"
28,< 10,"Cc1cc(F)c(NC(=O)NC(C)CC(F)(F)F)cc1-c1cc(OCCO)nc(N2CCOCC2)c1 (centres unmarked) [Example 57, 1-[2-fluoro-5-[2-(2-hydroxyethoxy)-6-(morpholin-4-yl)pyridin-4-yl]-4-methylphenyl]-3-(4,4,4-trifluorobutan-2-yl)urea]"
29,< 10,"Cc1cc(F)c(NC(=O)N2CC=C(C(F)(F)F)C2)cc1-c1cc(OCCO)nc(N2CCOCC2)c1 [Example 72, N-[2-fluoro-5-[2-(2-hydroxyethoxy)-6-(morpholin-4-yl)pyriidn-4-yl]-4-methylphenyl]-3-(trifluoromethyl)-2,5-dihydropyrrole-1-carboxamide]"

# Reference: patent US20230081390A1, “INHIBITORS OF RAF KINASES” (Kinnate Biopharma Inc., priority 2019, published 2023)
